Source: US5750578A, “Use of betulin and analogs thereof to treat herpesvirus infection” (priority 1997, dated 1998)
Entries after “also recorded” stand apart in the source; their conditions may differ.

Tests used:
[1] = system: HSV-1; assay: Cell protection test, HSV-1 in SK-N-MC cells; type: cell-based, herpes simplex virus type 1 (KOS, patent strain); details: duplicate wells, 72 hours
Description: (§1) Two different HSV-1 and HSV-2 strains were used: HSV-1 (KOS), HSV-2 (MS). Also, HSV-1 (patent strain) and HSV-2 (patent strain) were purchased from ATCC and propagated in HEp2 cell monolayers. Virus stocks were prepared by adsorbing 1 ml of virus suspension containing 1 ×10^5 virus particles for one hour in HEp2 cells at 37° C. in 5% carbon dioxide tension. This stock was incubated under similar conditions for 48 hours after adding 15 ml of MEM containing the usual supplements.
(§2) Infected cells were harvested and disrupted through three cycles of freezing and thawing. The contents in the flasks were pooled, and the supernatant virus particles were collected by centrifugation at 3000 rpm for 5 minutes. The virus suspension dispensed in 2.5 ml aliquot each and […] using both microtitration and plaque counting methods. HSV-1 and HSV-2 containing 5×10^4 PFU/ml and 5.25×10^4 PFU/ml respectively were stored at -80° C. until needed.
(§3) A plus 3 (+++) was given to the wells in which betulin solutions protected the cells without any cytopathic effect as compared to cell and betulin control.

[2] = system: SK-N-MC cells; assay: Cytotoxicity test and drug controls, SK-N-MC cells; type: cell-based, human; set-up: Betulin control (monolayer rating) / Acyclovir control (monolayer rating): key to the marks not given beside the values
[3] = system: HSV-1; assay: Cell protection test, HSV-1 in Vero cells; type: cell-based, herpes simplex virus type 1 (KOS, patent strain); details: duplicate wells, 72 hours
Description: as §1, §2, §3

[4] = system: HSV-2; assay: Cell protection test, HSV-2 in SK-N-MC cells; type: cell-based, herpes simplex virus type 2 (MS, patent strain); details: duplicate wells, 72 hours
Description: as §1, §2, §3

[5] = system: HSV-1 and HSV-2; assay: Cell protection tests, overall, HSV-1 and HSV-2 in three cell lines; type: cell-based
Description: as §1, §2, §3

[6] = system: Vero cells; assay: Cytotoxicity test and drug controls, Vero cells; set-up: Betulin control (monolayer rating) / Acyclovir control (monolayer rating): key to the marks not given beside the values
Description: Human epithelial type 2 (HEp2), African green monkey kidney (Vero) and human neuroblastoma (SK-N-MC) cells were purchased from American Type Culture Collection (ATCC-Rockville, Md.). These cells were grown at 37° C. in the presence of 5% carbon dioxide tension in minimal essential medium (MEM-Eagle) containing 0.1 mM of nonessential amino acids, and Earl's BSS 90% supplemented with 5% Newborn Calf Serum (NCS) and 1% penicillin/streptomycine sulfate. For SK-N-MC cells, 1.0 mM sodium pyruvate, and 10% NCS was used. The stock cells were prepared and stored at -80° C. in 5% dimethyl sulfoxide (DMSO).
A betulin solution containing 0.5 mg of betulin/1000 ml of water was filtered using a […] pore size filter (Gelman) attached to a 35 ml volume syringe to remove bacteria and other larger organisms. This sterile sample was further diluted to 1:2, 1:4, and 1:8 using distilled, deionized sterile water.
The cytotoxic effect of betulin was observed by using a 24-well microtiter plate. Each well contained 1 ml of MEM with supplements containing 1200 HEp2, Vero or SK-N-MC cells. The plates were incubated for 48 hours at 37° C. in 5% carbon dioxide tension and followed by replacement of the medium with 1.0 ml of MEM with specific supplements.
A 1.0 ml of sterile betulin solution in duplicate at varying two-fold dilution were placed into labeled wells. No betulin solution was placed in the control wells containing a monolayer of cells. These microtiter plates were incubated at 37° C. and 5% carbon dioxide tension for 48 hours and rated as follows.
Similarly, a plus 2 (++) for 75% monolayer, a plus one (+) for 50% monolayer, and a plus minus (±) for 25% monolayer development. A minus rating means that most of the cells are abnormal, whereas a double minus (--) rating was given to wells containing all abnormal cells due to cytotoxic effect of betulin solution. Noncytotoxic dilutions and the highest dilution of betulin showing cytotoxicity, if any, were used in the protection tests. […]

[7] = system: HSV-1; assay: Cell protection test, HSV-1 in HEp2 cells; type: cell-based, herpes simplex virus type 1 (KOS, patent strain); details: duplicate wells, 72 hours
Description: as §1, §2, §3

[8] = system: HEp2 cells; assay: Cytotoxicity test and drug controls, HEp2 cells; type: cell-based, human; set-up: Betulin control (monolayer rating) / Acyclovir control (monolayer rating): key to the marks not given beside the values
[9] = system: HSV-2; assay: Cell protection test, HSV-2 in HEp2 cells; type: cell-based, herpes simplex virus type 2 (MS, patent strain); details: duplicate wells, 72 hours
Description: as §1, §2, §3

[10] = system: HSV-2; assay: Cell protection test, HSV-2 in Vero cells; type: cell-based, herpes simplex virus type 2 (MS, patent strain); details: acyclovir 25 mg; duplicate wells; 72 hours
Description: as §1, §2, §3

[11] = betulin 0.5 mg/l and two-fold dilutions, 48 hours
[12] = acyclovir 50 mg/l and two-fold serial dilution

Structure (SMILES): C=C(C)[C@@H]1CC[C@]2(CO)CC[C@]3(C)[C@H](CC[C@@H]4[C@@]5(C)CC[C@H](O)C(C)(C)[C@@H]5CC[C@]43C)[C@@H]12 [Betulin, lup-20(29)-ene-3β, 28-diol]
- Effectiveness of betulin against HSV-1 in SK-N-MC cells ([1]; betulin 0.5 mg): ++±
- Cytotoxic effect [2, 11]: not toxic; also recorded: did not show any cytotoxic effect
- Betulin control (monolayer rating) ([2]; control wells, highest concentration of betulin, Tables 5 and 6): +++
- Effectiveness of betulin against HSV-1 in vero cells ([3]; betulin 0.5 mg): ++±
- Effectiveness of betulin against HSV-2 in SK-N-MC cells ([4]; betulin 0.5 mg): ++±
- Effectiveness in protecting indicator cell monolayers compared to acyclovir ([5]; 0.5 mg/l betulin vs 25 mg/l ACV, three cell types): as effective as 25 mg/l of ACV
- Spread of virus from the infected cells ([5]; after 72 hours): did not spread from the infected cells
- Effectiveness against HSV-2 compared to HSV-1 ([5]; three different cell lines): slightly more effective in protecting all three different cell lines against HSV-2 strains than HSV-1 strains; also recorded: more effective against HSV-2 compared to HSV-1
- Cytotoxic effect [6, 11]: not toxic; also recorded: did not show any cytotoxic effect
- Betulin control (monolayer rating) ([6]; control wells, highest concentration of betulin, Tables 3 and 4): +++
- Effectiveness of betulin against HSV-1 in HEp2 cells ([7]; betulin 0.5 mg [mg/l]): ++±
- Cytotoxic effect [8, 11]: not toxic; also recorded: did not show any cytotoxic effect
- Betulin control (monolayer rating) ([8]; control wells, highest concentration of betulin, Tables 1 and 2): +++
- Effectiveness of betulin against HSV-2 in HEp2 cells ([9]; betulin 0.25 mg): ++±

Structure (SMILES): Nc1nc2c(ncn2COCCO)c(=O)[nH]1 [Acyclovir, reference compound]
- Effectiveness against HSV-1 in SK-N-MC cells (acyclovir) ([1]; acyclovir 25 mg): ++±
- Acyclovir control (monolayer rating) [2]: +++
- Cytotoxic effect [2, 12]: no cytotoxic effect was observed
- Effectiveness against HSV-1 in vero cells (acyclovir) ([3]; acyclovir 25 mg): ++±
- Effectiveness against HSV-2 in SK-N-MC cells (acyclovir) ([4]; acyclovir 25 mg): ++±
- Acyclovir control (monolayer rating) [6]: +++
- Effectiveness against HSV-1 in HEp2 cells (acyclovir) ([7]; acyclovir 25 mg [mg/l]): ++±
- Effectiveness against HSV-2 in vero cells (acyclovir) [10]: ++±
- Acyclovir control (monolayer rating) [8]: +++
- Cytotoxic effect [8, 12]: no cytotoxic effect was observed
- Effectiveness against HSV-2 in HEp2 cells (acyclovir) ([9]; acyclovir 25 mg): ++±
